Experimental data: patent US10792373B2, “Drug delivery polymers and uses thereof” (priority 2016, dated 2020)

Columns and labels:
[1] = system: Eμ-Myc p19Arf−/− lymphoma cells; assay: RNAi signature assay (GFP-tagged shRNAs, flow cytometry); format: cell-based, murine; conditions: drug dosed to kill 80-90% of cells at 48 h; GFP positivity at 72 h
Procedure: RNAi signatures were performed as described previously^2-4. Briefly, Eμ-Myc p19^Arf−/− lymphoma cells were infected at about 30% with GFP-tagged shRNAs. The cells were then treated with drug to kill 80-90% of cells as judged by propidium iodide exclusion via flow cytometry at 48 h. At 72 h, GFP positivity was assessed via flow cytometry. Constrained linear regression was performed in Stata using least-squares fit with individual drug treatments as the predictor variables and the combination signatures as the response variables. The linear regression was constrained such that the sum of the predictor variables had to equal one and none could be negative.
(§1) Eμ-Myc p19Arf−/− lymphoma cells were infected at about 30% with GFP-tagged shRNAs. The cells were then treated with drug to kill 80-90% of cells as judged by propidium iodide exclusion via flow cytometry at 48 h. At 72 h GFP positivity was assessed via flow cytometry. Using the RNAi signature approach, the free drug, prodrug, single-drug-conjugated BASPs, and multi-drug conjugated BASPs illustrated in FIGS. 9A-9C were characterized. […] Next, the RNAi signatures for each of the free drugs and their corresponding prodrug monomers and BASPs were plotted (FIG. 20E) using principal component analysis (PCA). PCA is a means of representing the variance in a multi-dimensional dataset in fewer dimensions. […] One hypothesis that may explain the observed difference between the cisplatin and oxaliplatin prodrug mechanisms is related to the ligand lability of these species. Inside the cell, where the concentration of chloride ions is much lower than in the extracellular milieu (2 to 30 mM for the former compared to ˜100 mM for the latter), the weakly bound chloride ligands of free cisplatin are replaced with aquo ligands. This diaquo species induces cytotoxic inter- or intra-strand DNA cross-links. […] Additionally, utilizing a CisPt-DNA adduct specific antibody, the genomic DNA isolated from murine lymphoma cells after 8 h of drug treatment was analyzed. […]

Top1 = target: T1, Top1 (Mus musculus, UniProt Q04750); assay: GFP competition assay with validated Top1 shRNA; format: cell-based, murine
T1 construct: Eμ-Myc p19Arf−/− lymphoma cells were infected at about 30% with GFP-tagged shRNAs; endogenous in cells; host or cells: Eμ-Myc p19Arf-/- murine lymphoma cells
T1 sequence (Q04750 1-767): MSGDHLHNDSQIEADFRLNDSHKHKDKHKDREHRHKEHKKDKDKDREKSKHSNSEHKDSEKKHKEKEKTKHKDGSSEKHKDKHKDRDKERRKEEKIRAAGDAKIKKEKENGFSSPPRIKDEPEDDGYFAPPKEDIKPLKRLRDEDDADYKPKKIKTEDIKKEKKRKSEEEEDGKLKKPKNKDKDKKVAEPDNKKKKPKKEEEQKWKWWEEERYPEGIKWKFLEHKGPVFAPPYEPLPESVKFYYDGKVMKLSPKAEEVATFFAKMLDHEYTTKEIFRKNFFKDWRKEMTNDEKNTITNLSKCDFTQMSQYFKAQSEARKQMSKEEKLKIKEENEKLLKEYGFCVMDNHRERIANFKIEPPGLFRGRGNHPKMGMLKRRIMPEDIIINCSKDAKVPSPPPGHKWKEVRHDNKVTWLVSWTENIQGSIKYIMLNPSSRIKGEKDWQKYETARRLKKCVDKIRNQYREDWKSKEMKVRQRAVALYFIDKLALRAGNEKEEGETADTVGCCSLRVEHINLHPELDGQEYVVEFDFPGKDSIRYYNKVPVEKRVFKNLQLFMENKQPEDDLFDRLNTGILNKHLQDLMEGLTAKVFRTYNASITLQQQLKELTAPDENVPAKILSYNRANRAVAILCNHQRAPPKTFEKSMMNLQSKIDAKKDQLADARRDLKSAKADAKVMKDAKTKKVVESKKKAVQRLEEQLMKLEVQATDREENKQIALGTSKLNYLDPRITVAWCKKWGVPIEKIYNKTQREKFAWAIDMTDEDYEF
Procedure: (§2) Eμ-Myc p19Arf−/− lymphoma cells were infected at about 30% with GFP-tagged shRNAs. The cells were then treated with drug to kill 80-90% of cells as judged by propidium iodide exclusion via flow cytometry at 48 h. At 72 h GFP positivity was assessed via flow cytometry. Using the RNAi signature approach, the free drug, prodrug, single-drug-conjugated BASPs, and multi-drug conjugated BASPs illustrated in FIGS. 9A-9C were characterized. […] Next, the RNAi signatures for each of the free drugs and their corresponding prodrug monomers and BASPs were plotted (FIG. 20E) using principal component analysis (PCA). PCA is a means of representing the variance in a multi-dimensional dataset in fewer dimensions. […] Inside the cell, where the concentration of chloride ions is much lower than in the extracellular milieu (2 to 30 mM for the former compared to ˜100 mM for the latter), the weakly bound chloride ligands of free cisplatin are replaced with aquo ligands. This diaquo species induces cytotoxic inter- or intra-strand DNA cross-links.

Top2A = target: T2, Top2A (Mus musculus, UniProt Q01320); assay: GFP competition assay with validated Top2A shRNA; format: cell-based, murine
T2 construct: Eμ-Myc p19Arf−/− lymphoma cells were infected at about 30% with GFP-tagged shRNAs; endogenous in cells; host or cells: Eμ-Myc p19Arf-/- murine lymphoma cells
Procedure: as §2

[2] = system: genomic DNA isolated from murine lymphoma cells; assay: Cisplatin-DNA adduct detection with a CisPt-DNA adduct specific antibody; format: cell-based; conditions: after 8 h of drug treatment
Procedure: as §1

T2 sequence (Q01320 whole entry): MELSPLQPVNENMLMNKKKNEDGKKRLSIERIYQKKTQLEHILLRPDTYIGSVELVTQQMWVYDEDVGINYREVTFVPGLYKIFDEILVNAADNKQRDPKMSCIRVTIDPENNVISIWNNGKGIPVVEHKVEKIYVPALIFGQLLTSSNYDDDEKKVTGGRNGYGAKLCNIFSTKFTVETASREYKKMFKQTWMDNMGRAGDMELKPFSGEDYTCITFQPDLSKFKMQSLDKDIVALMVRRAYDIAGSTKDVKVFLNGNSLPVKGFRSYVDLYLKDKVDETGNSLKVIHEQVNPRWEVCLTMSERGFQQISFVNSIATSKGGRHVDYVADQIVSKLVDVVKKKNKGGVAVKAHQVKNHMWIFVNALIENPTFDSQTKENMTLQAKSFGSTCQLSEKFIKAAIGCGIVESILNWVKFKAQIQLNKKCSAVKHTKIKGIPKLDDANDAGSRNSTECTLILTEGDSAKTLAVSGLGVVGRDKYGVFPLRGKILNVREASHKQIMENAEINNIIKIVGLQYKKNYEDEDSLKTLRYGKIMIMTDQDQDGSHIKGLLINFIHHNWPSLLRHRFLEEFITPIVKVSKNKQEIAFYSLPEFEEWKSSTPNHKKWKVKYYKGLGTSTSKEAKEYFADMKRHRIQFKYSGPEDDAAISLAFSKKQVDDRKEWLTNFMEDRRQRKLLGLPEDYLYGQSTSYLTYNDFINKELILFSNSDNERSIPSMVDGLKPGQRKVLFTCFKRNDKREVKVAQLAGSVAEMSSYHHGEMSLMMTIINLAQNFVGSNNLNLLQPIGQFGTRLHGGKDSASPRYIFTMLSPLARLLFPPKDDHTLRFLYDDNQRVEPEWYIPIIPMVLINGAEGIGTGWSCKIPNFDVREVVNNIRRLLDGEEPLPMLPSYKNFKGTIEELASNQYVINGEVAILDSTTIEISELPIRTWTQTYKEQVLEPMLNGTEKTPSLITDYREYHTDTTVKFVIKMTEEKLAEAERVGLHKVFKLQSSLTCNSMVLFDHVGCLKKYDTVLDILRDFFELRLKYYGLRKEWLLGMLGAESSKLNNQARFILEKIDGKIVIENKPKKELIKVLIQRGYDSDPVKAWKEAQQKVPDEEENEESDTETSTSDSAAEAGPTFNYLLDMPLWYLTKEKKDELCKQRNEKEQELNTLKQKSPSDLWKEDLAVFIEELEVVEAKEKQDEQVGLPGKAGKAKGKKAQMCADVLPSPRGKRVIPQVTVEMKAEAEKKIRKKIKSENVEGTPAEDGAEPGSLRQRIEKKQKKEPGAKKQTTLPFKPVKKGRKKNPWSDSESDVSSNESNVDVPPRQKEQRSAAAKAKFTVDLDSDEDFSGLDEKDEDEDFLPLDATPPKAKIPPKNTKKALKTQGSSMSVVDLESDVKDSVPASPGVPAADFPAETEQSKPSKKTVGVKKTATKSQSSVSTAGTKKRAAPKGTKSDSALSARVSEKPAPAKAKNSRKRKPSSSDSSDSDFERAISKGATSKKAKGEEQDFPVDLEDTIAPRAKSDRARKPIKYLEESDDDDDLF

SMILES	RNAi signature classification (mechanism of action) [1]	response of cells with knockdown of Top1 (Top1)	response of cells harboring the Top2A shRNA (Top2A)	Cisplatin-DNA adducts [2]
CC[C@@]1(O)C(=O)OCc2c1cc1n(c2=O)Cc2cc3ccccc3nc2-1 [CPT, camptothecin]	Topoisomerase I (Top1) poisons	resistance	sensitivity	–
N.N.[Cl][Pt][Cl] [CisPt, cisplatin]	–	–	–	detected
COc1cccc2c1C(=O)c1c(O)c3c(c(O)c1C2=O)C[C@@](O)(C(=O)CO)C[C@@H]3O[C@H]1C[C@H](N)[C@H](O)[C@H](C)O1 [DOX, doxorubicin]	Topoisomerase II (Top2) poison	sensitivity	resistant	–
O=C1[O][Pt]2([NH][C@@H]3CCCC[C@H]3[NH]2)[O]C1=O [OxPt, oxaliplatin]	transcription/translation inhibitors	–	–	–
